Test results taken from US12448369B2 (Edgewise Therapeutics, Inc., priority 2023, dated 2025).

tested on: Rabbit Psoas myofibrils (skeletal myosin ATPase); assay: Myofibril ATPase assay, rabbit psoas (skeletal) myofibrils; type: biochemical; settings: rabbit psoas myofibrils; Y75 value
Outline: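 Rabbit psoas skeletal myofibrils in PIPES/CaCl2/EGTA pCa buffer, pH 7.0. ATPase rate followed by PK-LDH-coupled NADH loss at 340 nm, read every 1.5–2 min for 75 min. Slopes normalized to vehicle (100%) and fitted to a 4-parameter logistic; values are Y75 (25% inhibition) or Y125 (25% activation) concentrations.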

Cc1c(CC(=O)N[C@H](C)c2ccc(C#N)cc2F)c(=O)[nH]c2ccnc(C(F)(F)F)c12 [compound 161] and Cc1c(CC(=O)N[C@H](C)c2ccc(C#N)cc2F)c(=O)[nH]c2ccc(C(F)(F)F)nc12 (single isomer, unassigned) [compound 208] are within 1.5-fold of each other in “Skeletal EC25” value: 0.11 µM for the first, 0.15 µM for the second.

Cc1nccc2[nH]c(=O)c(CC(=O)N[C@H](C)c3ccccn3)c(C)c12 (single isomer, unassigned) [compound 324] and Cc1nccc2[nH]c(=O)c(CC(=O)N[C@@H](C)c3cccc(O)c3)c(C)c12 (single isomer, unassigned) [compound 331] are the same in “Skeletal EC25” value: 100.00 µM for the first, 100.00 µM for the second.

Compared with Cc1c(C(C)C(=O)N[C@@H](C)c2ccc(F)cc2F)c(=O)[nH]c2ccncc12 (stereo partly drawn) [compound 440], CC#Cc1nccc2[nH]c(=O)c(CC(=O)N[C@@H](C)c3ccc(F)cc3F)c(C)c12 [compound 350] is 46-fold lower in “Skeletal EC25” value: 2.78 µM for the first, 0.06 µM for the second.

First: Cc1c(CC(=O)N[C@@H](C)c2ccc(F)cc2F)c(=O)[nH]c2ccc(Br)nc12 [compound 357]
Second: Cc1c(CC(=O)N[C@@H](C)c2ccc(F)cc2F)c(=O)[nH]c2ccnc(OCC(C)(C)F)c12 [compound 372]
The “Skeletal EC25” value of the first is 27-fold lower: 0.06 µM for the first, 1.61 µM for the second.

Going from Cc1c(CC(=O)N[C@H]2COc3cccnc32)c(=O)[nH]c2ccnc(C#N)c12 (single isomer, unassigned) [compound 213] to COc1cccc([C@H](C)NC(=O)Cc2c(C)c3c(C)nccc3[nH]c2=O)c1 (single isomer, unassigned) [compound 315], the “Skeletal EC25” value rises from 7.67 µM to 100.00 µM (13-fold).

Compared with Cc1c(CC(=O)N[C@H](C)c2ccc(C#N)cn2)c(=O)[nH]c2ccc(OC(F)(F)F)nc12 [compound 449], Cc1cc([C@@H](C)NC(=O)Cc2cc3c(C#N)nccc3[nH]c2=O)ncc1F [compound 470] is 10-fold lower in “Skeletal EC25” value: 100.00 µM for the first, 9.89 µM for the second.

Going from Cc1nc(C#N)cnc1[C@@H](C)NC(=O)C(F)(F)c1c(C)c2c(C)nccc2[nH]c1=O (single isomer, unassigned) [compound 3503] to Cc1ccccc1[C@H](CO)NC(=O)Cc1c(C)c2c(C)nccc2[nH]c1=O (single isomer, unassigned) [compound 338], the “Skeletal EC25” value rises from 0.89 µM to 27.39 µM (31-fold).

Compared with Cc1cc([C@H](C)NC(=O)Cc2cc3c(C#N)nccc3[nH]c2=O)ncc1F [compound 471], C[C@H](NC(=O)Cc1c(C2CC2)c2cnccc2[nH]c1=O)c1ncc(C#N)cc1F [compound 143] is 160-fold lower in “Skeletal EC25” value: 100.00 µM for the first, 0.61 µM for the second.

same assay, conditions: ‡ Y125 value, not a Y75 value (125% activity relative to no compound); rabbit psoas myofibrils

In the case of Cc1c(C(F)(F)C(=O)N[C@@H](C)c2nccc(C#N)n2)c(=O)[nH]c2ccc(F)cc12 (single isomer, unassigned) [compound 2528], the “Skeletal EC25” value is reported as 93.23‡ μM.
For C[C@@H](NC(=O)[C@H](C)c1cc2c(F)c(F)ccc2[nH]c1=O)c1ncc(C#N)cc1F (single isomer, unassigned) [compound 2598], the “Skeletal EC25” value was 100.00‡ μM.
C[C@H](NC(=O)Cc1cc2c(C#N)c(F)ccc2[nH]c1=O)c1ncc(C#N)cn1 (single isomer, unassigned) [compound 2018] was tested, and the “Skeletal EC25” value was 100.00‡ μM.

tested on: Porcine atria myofibrils (atrial myosin ATPase); assay: Myofibril ATPase assay, porcine atria myofibrils; type: biochemical; settings: Y75 value (no ‡ mark); porcine atria myofibrils
Outline: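 Coupled PK-LDH reaction links ADP from myosin ATPase to NADH loss, read at 340 nm every 1.5-2 min for 75 min. Slopes (mAU/min) normalized to vehicle-only wells (100%) and fit to a 4-parameter logistic; Y75 is the concentration cutting activity by 25%, Y125 is reported for activators.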

Compared with Cc1c(C(F)(F)C(=O)N[C@@H](C)c2nccc(C#N)n2)c(=O)[nH]c2ccc(F)cc12 (single isomer, unassigned) [compound 2528], C[C@@H](NC(=O)[C@H](C)c1cc2c(F)c(F)ccc2[nH]c1=O)c1ncc(C#N)cc1F (single isomer, unassigned) [compound 2598] is 7.4-fold lower in “Atrial EC25” value: 4.45 µM for the first, 0.60 µM for the second.

same assay, conditions: porcine atria myofibrils; Y75 value (75% activity relative to no compound)

Compared with Cc1c(CC(=O)N[C@H](C)c2ccc(C#N)cc2F)c(=O)[nH]c2ccnc(C(F)(F)F)c12 [compound 161], Cc1c(CC(=O)N[C@H](C)c2ccc(C#N)cc2F)c(=O)[nH]c2ccc(C(F)(F)F)nc12 (single isomer, unassigned) [compound 208] is 6.4-fold higher in “Atrial EC25” value: 0.34 µM for the first, 2.16 µM for the second.

Cc1nccc2[nH]c(=O)c(CC(=O)N[C@H](C)c3ccccn3)c(C)c12 (single isomer, unassigned) [compound 324] and Cc1nccc2[nH]c(=O)c(CC(=O)N[C@@H](C)c3cccc(O)c3)c(C)c12 (single isomer, unassigned) [compound 331] are the same in “Atrial EC25” value: 100.00 µM for the first, 100.00 µM for the second.

First: Cc1c(C(C)C(=O)N[C@@H](C)c2ccc(F)cc2F)c(=O)[nH]c2ccncc12 (stereo partly drawn) [compound 440]
Second: CC#Cc1nccc2[nH]c(=O)c(CC(=O)N[C@@H](C)c3ccc(F)cc3F)c(C)c12 [compound 350]
The “Atrial EC25” value of the first is 35-fold higher: 34.65 µM for the first, 0.99 µM for the second.

First: Cc1c(CC(=O)N[C@@H](C)c2ccc(F)cc2F)c(=O)[nH]c2ccc(Br)nc12 [compound 357]
Second: Cc1c(CC(=O)N[C@@H](C)c2ccc(F)cc2F)c(=O)[nH]c2ccnc(OCC(C)(C)F)c12 [compound 372]
The “Atrial EC25” value of the first is 1700-fold lower: 0.06 µM for the first, 100.00 µM for the second.

Cc1c(CC(=O)N[C@H]2COc3cccnc32)c(=O)[nH]c2ccnc(C#N)c12 (single isomer, unassigned) [compound 213] and COc1cccc([C@H](C)NC(=O)Cc2c(C)c3c(C)nccc3[nH]c2=O)c1 (single isomer, unassigned) [compound 315] are the same in “Atrial EC25” value: 100.00 µM for the first, 100.00 µM for the second.

Cc1c(CC(=O)N[C@H](C)c2ccc(C#N)cn2)c(=O)[nH]c2ccc(OC(F)(F)F)nc12 [compound 449] and Cc1cc([C@@H](C)NC(=O)Cc2cc3c(C#N)nccc3[nH]c2=O)ncc1F [compound 470] are the same in “Atrial EC25” value: 100.00 µM for the first, 100.00 µM for the second.

Compared with Cc1nc(C#N)cnc1[C@@H](C)NC(=O)C(F)(F)c1c(C)c2c(C)nccc2[nH]c1=O (single isomer, unassigned) [compound 3503], Cc1ccccc1[C@H](CO)NC(=O)Cc1c(C)c2c(C)nccc2[nH]c1=O (single isomer, unassigned) [compound 338] is 2.5-fold higher in “Atrial EC25” value: 3.50 µM for the first, 8.69 µM for the second.

First: Cc1cc([C@H](C)NC(=O)Cc2cc3c(C#N)nccc3[nH]c2=O)ncc1F [compound 471]
Second: C[C@H](NC(=O)Cc1c(C2CC2)c2cnccc2[nH]c1=O)c1ncc(C#N)cc1F [compound 143]
The “Atrial EC25” value of the first is 100-fold higher: 100.00 µM for the first, 0.96 µM for the second.

same assay, conditions: ‡ Y125 value, not a Y75 value (125% activity relative to no compound); porcine atria myofibrils

In the case of C[C@H](NC(=O)Cc1cc2c(C#N)c(F)ccc2[nH]c1=O)c1ncc(C#N)cn1 (single isomer, unassigned) [compound 2018], the “Atrial EC25” value is reported as 100.00‡ μM.

target: T1, Porcine ventricle myofibrils (ventricular myosin ATPase) (Sus scrofa, UniProt P79293); assay: Myofibril ATPase assay, porcine ventricle myofibrils; type: biochemical, porcine (Yucatan minipigs); settings: Y75 value (no ‡ mark); porcine ventricle myofibrils
T1 construct: Myofibrils from porcine cardiac muscle was isolated from the left ventricle of Yucatan minipigs; tissue Exemplar Genetics; host or cells: left ventricle of Yucatan minipigs, myofibrils prepared in house
T1 sequence (P79293 whole entry): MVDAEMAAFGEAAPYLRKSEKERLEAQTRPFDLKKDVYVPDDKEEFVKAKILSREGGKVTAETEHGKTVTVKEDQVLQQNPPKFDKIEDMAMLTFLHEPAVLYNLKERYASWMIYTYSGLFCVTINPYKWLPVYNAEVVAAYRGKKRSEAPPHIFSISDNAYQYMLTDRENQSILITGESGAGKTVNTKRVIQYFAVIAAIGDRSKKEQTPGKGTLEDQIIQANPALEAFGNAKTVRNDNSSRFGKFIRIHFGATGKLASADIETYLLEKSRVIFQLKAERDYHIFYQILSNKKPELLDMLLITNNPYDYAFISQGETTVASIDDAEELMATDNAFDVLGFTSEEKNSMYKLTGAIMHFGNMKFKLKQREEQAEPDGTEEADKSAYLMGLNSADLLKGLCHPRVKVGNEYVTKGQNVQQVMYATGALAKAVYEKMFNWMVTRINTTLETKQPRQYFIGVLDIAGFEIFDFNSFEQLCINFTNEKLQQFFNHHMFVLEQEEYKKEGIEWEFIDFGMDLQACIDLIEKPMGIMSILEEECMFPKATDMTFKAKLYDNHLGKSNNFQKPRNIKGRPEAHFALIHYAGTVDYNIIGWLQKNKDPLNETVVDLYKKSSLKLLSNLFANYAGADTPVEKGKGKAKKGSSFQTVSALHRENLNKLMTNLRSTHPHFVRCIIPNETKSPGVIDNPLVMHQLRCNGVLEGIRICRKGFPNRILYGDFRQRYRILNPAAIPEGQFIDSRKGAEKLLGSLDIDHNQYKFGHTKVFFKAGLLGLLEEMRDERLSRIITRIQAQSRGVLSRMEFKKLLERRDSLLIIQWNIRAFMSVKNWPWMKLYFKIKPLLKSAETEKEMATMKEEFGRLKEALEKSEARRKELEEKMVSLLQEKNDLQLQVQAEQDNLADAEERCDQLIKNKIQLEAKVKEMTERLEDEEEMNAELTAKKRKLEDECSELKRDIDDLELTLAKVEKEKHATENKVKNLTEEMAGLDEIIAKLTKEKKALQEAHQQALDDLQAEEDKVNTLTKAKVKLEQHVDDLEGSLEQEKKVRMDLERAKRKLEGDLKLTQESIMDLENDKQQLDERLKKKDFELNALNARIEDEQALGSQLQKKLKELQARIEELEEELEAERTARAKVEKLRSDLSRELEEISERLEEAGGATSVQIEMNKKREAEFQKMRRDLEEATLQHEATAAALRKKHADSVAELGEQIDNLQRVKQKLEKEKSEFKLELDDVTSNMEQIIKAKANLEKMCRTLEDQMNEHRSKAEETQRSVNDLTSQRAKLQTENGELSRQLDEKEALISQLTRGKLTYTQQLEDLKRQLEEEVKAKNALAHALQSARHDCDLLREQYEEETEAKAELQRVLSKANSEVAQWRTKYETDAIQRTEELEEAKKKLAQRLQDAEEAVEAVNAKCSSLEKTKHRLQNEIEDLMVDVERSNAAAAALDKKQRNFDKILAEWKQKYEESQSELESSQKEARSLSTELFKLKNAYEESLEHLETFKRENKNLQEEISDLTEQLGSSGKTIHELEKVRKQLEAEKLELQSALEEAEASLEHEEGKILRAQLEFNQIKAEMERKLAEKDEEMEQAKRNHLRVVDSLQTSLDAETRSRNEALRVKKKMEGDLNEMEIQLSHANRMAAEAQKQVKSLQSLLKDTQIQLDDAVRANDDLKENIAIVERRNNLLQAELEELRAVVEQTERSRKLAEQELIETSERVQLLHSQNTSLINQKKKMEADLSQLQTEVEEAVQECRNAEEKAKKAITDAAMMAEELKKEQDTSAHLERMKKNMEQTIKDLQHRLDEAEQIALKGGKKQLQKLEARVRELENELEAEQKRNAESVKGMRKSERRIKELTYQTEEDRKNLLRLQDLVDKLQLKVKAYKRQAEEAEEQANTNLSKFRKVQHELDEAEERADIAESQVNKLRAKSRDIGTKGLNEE
Outline: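 ATPase activity of porcine left-ventricle myofibrils (Yucatan minipig) was followed through PK-LDH coupling as NADH loss at 340 nm, read every 1.5-2 min for 75 min. Slopes were normalised to vehicle wells and fitted to a 4-parameter logistic model. Values are Y75, the concentration giving a 25% drop in activity, or Y125 for activators.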

Going from Cc1c(C(F)(F)C(=O)N[C@@H](C)c2nccc(C#N)n2)c(=O)[nH]c2ccc(F)cc12 (single isomer, unassigned) [compound 2528] to C[C@@H](NC(=O)[C@H](C)c1cc2c(F)c(F)ccc2[nH]c1=O)c1ncc(C#N)cc1F (single isomer, unassigned) [compound 2598], the “Ventricular EC25” value falls from 100.00 µM to 1.10 µM (91-fold).

same assay, conditions: porcine ventricle myofibrils; Y75 value

First: Cc1c(CC(=O)N[C@H](C)c2ccc(C#N)cc2F)c(=O)[nH]c2ccnc(C(F)(F)F)c12 [compound 161]
Second: Cc1c(CC(=O)N[C@H](C)c2ccc(C#N)cc2F)c(=O)[nH]c2ccc(C(F)(F)F)nc12 (single isomer, unassigned) [compound 208]
The “Ventricular EC25” value of the first is 8.1-fold lower: 1.19 µM for the first, 9.68 µM for the second.

Cc1nccc2[nH]c(=O)c(CC(=O)N[C@H](C)c3ccccn3)c(C)c12 (single isomer, unassigned) [compound 324] and Cc1nccc2[nH]c(=O)c(CC(=O)N[C@@H](C)c3cccc(O)c3)c(C)c12 (single isomer, unassigned) [compound 331] are the same in “Ventricular EC25” value: 100.00 µM for the first, 100.00 µM for the second.

Compared with Cc1c(C(C)C(=O)N[C@@H](C)c2ccc(F)cc2F)c(=O)[nH]c2ccncc12 (stereo partly drawn) [compound 440], CC#Cc1nccc2[nH]c(=O)c(CC(=O)N[C@@H](C)c3ccc(F)cc3F)c(C)c12 [compound 350] is 50-fold lower in “Ventricular EC25” value: 100.00 µM for the first, 1.99 µM for the second.

Compared with Cc1c(CC(=O)N[C@@H](C)c2ccc(F)cc2F)c(=O)[nH]c2ccc(Br)nc12 [compound 357], Cc1c(CC(=O)N[C@@H](C)c2ccc(F)cc2F)c(=O)[nH]c2ccnc(OCC(C)(C)F)c12 [compound 372] is 320-fold higher in “Ventricular EC25” value: 0.31 µM for the first, 100.00 µM for the second.

Cc1c(CC(=O)N[C@H]2COc3cccnc32)c(=O)[nH]c2ccnc(C#N)c12 (single isomer, unassigned) [compound 213] and COc1cccc([C@H](C)NC(=O)Cc2c(C)c3c(C)nccc3[nH]c2=O)c1 (single isomer, unassigned) [compound 315] are the same in “Ventricular EC25” value: 100.00 µM for the first, 100.00 µM for the second.

Cc1c(CC(=O)N[C@H](C)c2ccc(C#N)cn2)c(=O)[nH]c2ccc(OC(F)(F)F)nc12 [compound 449] and Cc1cc([C@@H](C)NC(=O)Cc2cc3c(C#N)nccc3[nH]c2=O)ncc1F [compound 470] are the same in “Ventricular EC25” value: 100.00 µM for the first, 100.00 µM for the second.

First: Cc1nc(C#N)cnc1[C@@H](C)NC(=O)C(F)(F)c1c(C)c2c(C)nccc2[nH]c1=O (single isomer, unassigned) [compound 3503]
Second: Cc1ccccc1[C@H](CO)NC(=O)Cc1c(C)c2c(C)nccc2[nH]c1=O (single isomer, unassigned) [compound 338]
The “Ventricular EC25” value of the first is 18-fold lower: 5.70 µM for the first, 100.00 µM for the second.

Going from Cc1cc([C@H](C)NC(=O)Cc2cc3c(C#N)nccc3[nH]c2=O)ncc1F [compound 471] to C[C@H](NC(=O)Cc1c(C2CC2)c2cnccc2[nH]c1=O)c1ncc(C#N)cc1F [compound 143], the “Ventricular EC25” value falls from 67.58 µM to 6.56 µM (10-fold).

same assay, conditions: ‡ Y125 value, not a Y75 value (125% activity relative to no compound); porcine ventricle myofibrils

In the case of C[C@H](NC(=O)Cc1cc2c(C#N)c(F)ccc2[nH]c1=O)c1ncc(C#N)cn1 (single isomer, unassigned) [compound 2018], the “Ventricular EC25” value is reported as 100.00‡ μM.
